Measured values from patent publication US20260284044A1, “PHARMACEUTICAL COMPOSITIONS OF VARENICLINE AND PROCESS THEREOF” (TENSHI KAIZEN L PRIVATE LIMITED, priority 2023, published 2026).

Columns and labels:
[1] = FDA, cited from earlier work
[2] = N-nitroso varenicline content of API and tablets, initial and on stability storage; format: physicochemical

Compound | Intake limit considered reasonably safe for humans ([1]; based on lifetime exposure) | Interim acceptable intake limit ([1]; interim limit for distribution in the US) | Results (nitroso varenicline) ([2]; Batch API (EL-01-A179-2001003), limit NMT 18.5 ppm) | Initial (ppm) (N-nitroso varenicline) ([2]; Orally disintegrating tablets 1 mg and API, initial data)
O=NN1CC2CC(C1)c1cc3nccnc3cc12 [N-nitroso-varenicline] | 37 nanograms per day | ≤ 185 ng per day |  | 
(2R,3R)-2,3-dihydroxybutanedioic acid;5,8,14-triazatetracyclo [10.3.1.02,11.04,9]hexadeca-2,4,6,8,10-pentaene [Varenicline API] |  |  | Less than 2 ppm | 1.73 ppm
